Results published in patent US20100062070A1, “Pulverzed crystals of olmesartan medoxomil” (DAIICHI SANKYO COMPANY, LIMITED, priority 2007, published 2010).

Legend:
[1] = Measurement of dissolution ratio of pulverized olmesartan medoxomil (JP Dissolution Test Method 2, Paddle Method); format: physicochemical; conditions: calculated from regression equation in FIG. 1, 30 minutes, JP-2, 200 paddle rpm
Description: According to the Method 2 of the Dissolution Test (Paddle Method) described in the 14th Revised Edition of the Japanese Pharmacopoeia, at 200 paddle revolutions per-minute using 900 mL of Japanese Pharmacopoeia Solution 2 (JP-2) for the test solution, 20 mg of milled olmesartan medoxomil prepared per 1 Bessel was added. The test solution was sampled at 30 minutes after the start of the testing, the sampled test solution was filtered through a membrane filter having a pore diameter of 0.45 μm, and the dissolution ratio of olmesartan medoximil was measured by spectrophotometer. Calculation of the dissolution ratio was conducted based on “absorbance of filtrate at 257 nm-absorbance of filtrate at 338 nm”.

[2] = Particle diameter measurement of milled product (HELOS&RODOS dry powder particle size analyzer); format: physicochemical; conditions: evaluated by using FIG. 3
Description: The particle diameter of the milled olmesartan medoxomil obtained in Example (1) was measured under the following conditions. Apparatus: HELOS&RODOS dry powder particle size analyzer Lens: R3 Dispersive pressure: 1.5 bar Trigger condition: 2s-1000ms-k15-0.5% Feeder: VIBRI (feeding: 70%)

CCCc1nc(C(C)(C)O)c(C(=O)OCc2oc(=O)oc2C)n1Cc1ccc(-c2ccccc2-c2nnn[nH]2)cc1 [olmesartan medoxomil, (5-methyl-2-oxo-1,3-dioxolen-4-yl)methyl 4-(1-hydroxy-1-methylethyl)-2-propyl-1-[2′-(1H-tetrazol-5-yl)biphenyl-4-ylmethyl]imidazole-5-carboxylate]
dissolution ratio of the drug substance ([1]; desired dissolution ratio of the medicament (20 mg tablet) set to 60%): 42.93% | dissolution ratio of the drug substance ([1]; desired dissolution ratio of the medicament (20 mg tablet) set to 65%): 50.56% | dissolution ratio of the drug substance ([1]; desired dissolution ratio of the medicament (20 mg tablet) set to 70%): 58.18% | particle diameter at 99% cumulative volume ([2]; required for a medicament which elutes 60% or more): ≤ 156 μm | particle diameter at 99% cumulative volume ([2]; required for a medicament which elutes 65% or more): ≤ 137 μm | particle diameter at 99% cumulative volume ([2]; required for a medicament which elutes 70% or more): ≤ 119 μm
